Test results: ChEMBL document CHEMBL5465560, “Selectivity Literature for EUbOPEN Chemogenomic Library” (2024)

Legend:
[1] = molecular target: T1, Protein kinase C iota type (Homo sapiens) (UniProt P41743); experiment: Selectivity interaction (KinomeScan (DiscoverX)) EUB0000092b PRKCI; details: at 10 µM
T1 sequence (whole entry): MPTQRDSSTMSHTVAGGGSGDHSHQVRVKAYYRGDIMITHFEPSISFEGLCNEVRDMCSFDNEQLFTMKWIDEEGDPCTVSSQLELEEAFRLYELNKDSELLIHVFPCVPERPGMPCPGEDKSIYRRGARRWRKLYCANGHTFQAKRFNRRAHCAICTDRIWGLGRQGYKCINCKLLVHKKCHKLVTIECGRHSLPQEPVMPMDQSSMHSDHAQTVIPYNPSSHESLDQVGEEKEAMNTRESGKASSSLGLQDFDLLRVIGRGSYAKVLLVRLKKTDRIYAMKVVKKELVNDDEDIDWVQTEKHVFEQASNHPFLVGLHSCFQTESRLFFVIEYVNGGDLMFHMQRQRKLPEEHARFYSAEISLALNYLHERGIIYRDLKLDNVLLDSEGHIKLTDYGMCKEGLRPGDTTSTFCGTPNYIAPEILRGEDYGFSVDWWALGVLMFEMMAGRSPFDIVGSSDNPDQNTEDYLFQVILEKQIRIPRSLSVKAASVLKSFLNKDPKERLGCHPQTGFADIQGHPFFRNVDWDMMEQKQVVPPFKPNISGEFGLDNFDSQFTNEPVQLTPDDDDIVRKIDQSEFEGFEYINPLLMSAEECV

[2] = molecular target: Ephrin type-A receptor 2 (Homo sapiens) (UniProt P29317); experiment: Selectivity interaction (Kinase panel (DSF assay)) EUB0001559a EPHA2
[3] = molecular target: Cyclin-dependent kinase 17 (Homo sapiens) (UniProt Q00537); experiment: Selectivity interaction (KinomeScan (DiscoverX)) EUB0001079a CDK17; details: at 1 µM
[4] = molecular target: Protein polybromo-1 (Homo sapiens) (UniProt Q86U86); experiment: Selectivity interaction (Human bromodomain panel (DSF assay)) EUB0000233b PBRM1
[5] = molecular target: T2, Aurora kinase C (Homo sapiens) (UniProt Q9UQB9); experiment: Selectivity interaction (KinomeScan (DiscoverX)) EUB0000666a AURKC; details: at 10 µM
T2 sequence (whole entry): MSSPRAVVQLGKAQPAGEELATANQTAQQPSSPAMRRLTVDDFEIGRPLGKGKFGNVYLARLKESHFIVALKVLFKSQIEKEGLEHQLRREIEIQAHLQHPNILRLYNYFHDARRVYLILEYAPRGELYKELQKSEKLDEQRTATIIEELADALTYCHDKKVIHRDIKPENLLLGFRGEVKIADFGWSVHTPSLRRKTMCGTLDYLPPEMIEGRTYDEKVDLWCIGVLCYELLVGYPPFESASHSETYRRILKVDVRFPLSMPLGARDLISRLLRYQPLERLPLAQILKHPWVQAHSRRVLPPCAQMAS

[6] = molecular target: Cyclin-dependent kinase 16 (Homo sapiens) (UniProt Q00536); experiment: Selectivity interaction (KinomeScan (DiscoverX)) EUB0000666a CDK16; details: at 10 µM
[7] = molecular target: Cyclin-dependent kinase 11B (Homo sapiens) (UniProt P21127); details: at 10 µM
[8] = molecular target: Leukocyte tyrosine kinase receptor (Homo sapiens, UniProt P29376); experiment: Selectivity interaction (Kinase panel (Z-LYTE Assay)) EUB0001632a LTK; details: at 10 µM
[9] = molecular target: Serine/threonine-protein kinase PLK1 (Homo sapiens, UniProt P53350); experiment: Selectivity interaction (KinomeScan (DiscoverX)) EUB0001049a PLK1; details: at 1 µM
[10] = molecular target: Tyrosine-protein kinase Fer (Homo sapiens) (UniProt P16591); experiment: Selectivity interaction (KinomeScan (DiscoverX)) EUB0000618a FER; details: at 10 µM
[11] = molecular target: T3, Ephrin type-B receptor 3 (Homo sapiens) (UniProt P54753); experiment: Selectivity interaction (KinomeScan (DiscoverX)) EUB0001619a EPHB3; details: at 1 µM
T3 sequence (whole entry): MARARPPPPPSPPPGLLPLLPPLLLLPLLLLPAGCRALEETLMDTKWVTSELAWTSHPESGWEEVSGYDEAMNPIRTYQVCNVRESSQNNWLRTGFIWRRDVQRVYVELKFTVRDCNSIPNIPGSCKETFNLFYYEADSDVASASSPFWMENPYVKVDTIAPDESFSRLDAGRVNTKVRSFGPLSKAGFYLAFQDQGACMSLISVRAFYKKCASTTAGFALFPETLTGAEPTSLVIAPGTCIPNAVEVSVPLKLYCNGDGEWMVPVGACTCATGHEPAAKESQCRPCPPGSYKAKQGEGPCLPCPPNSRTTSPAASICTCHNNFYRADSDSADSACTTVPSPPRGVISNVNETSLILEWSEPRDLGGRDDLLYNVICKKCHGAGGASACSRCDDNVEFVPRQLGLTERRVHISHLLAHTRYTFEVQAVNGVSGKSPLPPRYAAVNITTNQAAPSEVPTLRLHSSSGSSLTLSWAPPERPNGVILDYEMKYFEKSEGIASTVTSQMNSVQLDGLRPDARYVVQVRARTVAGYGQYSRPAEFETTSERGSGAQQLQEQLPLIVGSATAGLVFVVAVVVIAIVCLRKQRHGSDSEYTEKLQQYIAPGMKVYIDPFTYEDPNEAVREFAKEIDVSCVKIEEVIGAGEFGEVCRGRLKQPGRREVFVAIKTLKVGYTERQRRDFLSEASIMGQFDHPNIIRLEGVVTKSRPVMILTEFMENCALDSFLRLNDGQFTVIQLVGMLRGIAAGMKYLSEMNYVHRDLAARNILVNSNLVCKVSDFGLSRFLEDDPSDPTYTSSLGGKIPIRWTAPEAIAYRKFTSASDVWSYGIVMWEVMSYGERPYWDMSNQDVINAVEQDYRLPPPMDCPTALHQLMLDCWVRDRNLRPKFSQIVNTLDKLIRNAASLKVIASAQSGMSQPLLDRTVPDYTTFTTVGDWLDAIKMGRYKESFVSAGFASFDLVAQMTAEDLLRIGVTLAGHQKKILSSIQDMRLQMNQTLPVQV

Chain of Cyclin-dependent kinase 11B (Homo sapiens) (P21127 whole entry): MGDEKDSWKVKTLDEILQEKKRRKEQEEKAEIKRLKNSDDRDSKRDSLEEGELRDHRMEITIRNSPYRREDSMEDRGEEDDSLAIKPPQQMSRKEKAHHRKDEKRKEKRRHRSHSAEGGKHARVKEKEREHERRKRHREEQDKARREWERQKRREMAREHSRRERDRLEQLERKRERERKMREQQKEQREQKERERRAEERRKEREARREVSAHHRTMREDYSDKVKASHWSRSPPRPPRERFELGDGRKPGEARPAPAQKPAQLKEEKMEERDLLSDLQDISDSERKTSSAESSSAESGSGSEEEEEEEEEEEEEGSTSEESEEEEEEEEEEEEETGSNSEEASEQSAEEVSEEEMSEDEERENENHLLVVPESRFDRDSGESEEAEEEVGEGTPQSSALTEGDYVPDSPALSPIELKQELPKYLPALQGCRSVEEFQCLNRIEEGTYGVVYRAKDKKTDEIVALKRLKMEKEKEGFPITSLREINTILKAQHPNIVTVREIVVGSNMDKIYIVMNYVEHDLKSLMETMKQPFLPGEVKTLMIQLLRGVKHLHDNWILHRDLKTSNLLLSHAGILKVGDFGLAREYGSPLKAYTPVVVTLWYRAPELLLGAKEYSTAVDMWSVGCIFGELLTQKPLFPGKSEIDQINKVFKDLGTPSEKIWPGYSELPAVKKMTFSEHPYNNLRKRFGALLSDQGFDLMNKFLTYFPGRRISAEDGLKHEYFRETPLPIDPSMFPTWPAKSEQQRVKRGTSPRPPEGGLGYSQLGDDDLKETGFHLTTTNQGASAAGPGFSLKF
Chain of Protein polybromo-1 (Homo sapiens) (Q86U86 whole entry): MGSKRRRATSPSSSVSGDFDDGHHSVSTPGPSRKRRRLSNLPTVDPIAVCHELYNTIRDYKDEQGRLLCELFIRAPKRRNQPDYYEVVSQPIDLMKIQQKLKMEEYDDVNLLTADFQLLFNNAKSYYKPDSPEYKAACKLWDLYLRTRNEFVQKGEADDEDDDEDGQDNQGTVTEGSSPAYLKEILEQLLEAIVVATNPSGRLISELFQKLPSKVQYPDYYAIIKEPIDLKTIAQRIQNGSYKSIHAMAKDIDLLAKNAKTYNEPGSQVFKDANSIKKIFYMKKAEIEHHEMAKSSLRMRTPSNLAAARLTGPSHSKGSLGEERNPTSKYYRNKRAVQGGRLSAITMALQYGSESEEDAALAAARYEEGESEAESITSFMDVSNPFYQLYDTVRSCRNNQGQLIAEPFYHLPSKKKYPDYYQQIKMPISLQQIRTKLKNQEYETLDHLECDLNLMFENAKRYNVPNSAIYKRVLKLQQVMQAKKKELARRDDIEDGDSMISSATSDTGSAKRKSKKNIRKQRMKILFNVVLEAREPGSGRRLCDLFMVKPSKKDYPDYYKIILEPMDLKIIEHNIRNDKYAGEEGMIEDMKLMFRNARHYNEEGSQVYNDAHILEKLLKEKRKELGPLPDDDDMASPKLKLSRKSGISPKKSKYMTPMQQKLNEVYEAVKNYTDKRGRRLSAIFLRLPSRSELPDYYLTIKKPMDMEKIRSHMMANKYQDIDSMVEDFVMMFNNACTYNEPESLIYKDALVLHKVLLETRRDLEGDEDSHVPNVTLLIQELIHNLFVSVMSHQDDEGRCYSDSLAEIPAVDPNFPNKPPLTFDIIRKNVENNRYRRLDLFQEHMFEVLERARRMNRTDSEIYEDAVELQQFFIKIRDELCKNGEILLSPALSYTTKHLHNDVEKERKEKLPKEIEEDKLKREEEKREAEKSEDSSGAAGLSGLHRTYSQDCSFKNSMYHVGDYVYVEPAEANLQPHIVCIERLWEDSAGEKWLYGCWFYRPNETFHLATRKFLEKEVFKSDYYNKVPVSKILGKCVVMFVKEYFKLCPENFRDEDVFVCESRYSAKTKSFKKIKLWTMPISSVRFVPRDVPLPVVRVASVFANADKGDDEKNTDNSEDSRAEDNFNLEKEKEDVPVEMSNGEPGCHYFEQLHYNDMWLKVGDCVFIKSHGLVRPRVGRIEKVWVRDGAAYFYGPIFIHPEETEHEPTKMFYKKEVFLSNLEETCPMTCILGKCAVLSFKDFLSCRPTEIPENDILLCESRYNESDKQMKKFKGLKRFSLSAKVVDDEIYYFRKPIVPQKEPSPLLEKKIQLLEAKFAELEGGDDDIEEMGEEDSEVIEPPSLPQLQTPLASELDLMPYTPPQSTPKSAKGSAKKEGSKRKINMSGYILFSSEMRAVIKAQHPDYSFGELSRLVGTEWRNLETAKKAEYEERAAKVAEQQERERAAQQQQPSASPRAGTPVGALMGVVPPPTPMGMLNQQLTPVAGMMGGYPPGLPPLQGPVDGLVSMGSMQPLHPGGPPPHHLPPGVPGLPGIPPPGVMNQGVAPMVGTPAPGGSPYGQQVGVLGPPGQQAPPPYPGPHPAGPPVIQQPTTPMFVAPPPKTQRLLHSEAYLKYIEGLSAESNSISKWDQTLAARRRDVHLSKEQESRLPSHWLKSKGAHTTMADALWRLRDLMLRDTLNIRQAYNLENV
Chain of Cyclin-dependent kinase 17 (Homo sapiens) (Q00537 whole entry, looked up): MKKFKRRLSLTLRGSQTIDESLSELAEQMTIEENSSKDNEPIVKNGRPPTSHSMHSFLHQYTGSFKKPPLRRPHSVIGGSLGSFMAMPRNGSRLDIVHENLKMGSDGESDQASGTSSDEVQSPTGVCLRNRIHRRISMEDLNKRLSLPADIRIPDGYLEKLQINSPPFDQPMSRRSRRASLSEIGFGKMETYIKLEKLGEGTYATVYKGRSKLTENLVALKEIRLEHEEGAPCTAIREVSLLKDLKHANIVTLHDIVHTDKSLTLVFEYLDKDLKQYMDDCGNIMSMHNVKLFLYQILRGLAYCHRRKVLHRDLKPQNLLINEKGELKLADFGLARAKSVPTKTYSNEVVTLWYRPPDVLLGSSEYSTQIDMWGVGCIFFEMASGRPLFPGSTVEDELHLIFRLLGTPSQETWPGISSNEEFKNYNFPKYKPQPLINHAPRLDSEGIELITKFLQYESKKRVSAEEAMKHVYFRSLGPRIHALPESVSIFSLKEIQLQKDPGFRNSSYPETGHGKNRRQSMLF
Chain of Cyclin-dependent kinase 16 (Homo sapiens) (Q00536 whole entry): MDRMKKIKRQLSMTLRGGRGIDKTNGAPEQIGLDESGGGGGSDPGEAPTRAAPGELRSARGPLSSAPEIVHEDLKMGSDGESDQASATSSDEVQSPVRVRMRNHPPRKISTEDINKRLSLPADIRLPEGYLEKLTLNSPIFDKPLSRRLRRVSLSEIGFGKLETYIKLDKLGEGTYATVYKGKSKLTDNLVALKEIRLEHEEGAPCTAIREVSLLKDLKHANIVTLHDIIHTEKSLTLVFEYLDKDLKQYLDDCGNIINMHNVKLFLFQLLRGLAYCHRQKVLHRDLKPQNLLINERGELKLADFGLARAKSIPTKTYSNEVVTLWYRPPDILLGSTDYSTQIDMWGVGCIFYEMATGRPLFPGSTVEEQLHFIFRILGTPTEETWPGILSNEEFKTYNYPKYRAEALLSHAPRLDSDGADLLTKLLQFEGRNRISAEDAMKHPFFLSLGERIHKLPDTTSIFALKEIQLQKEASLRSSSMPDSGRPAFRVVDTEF
Chain of Leukocyte tyrosine kinase receptor (P29376 whole entry): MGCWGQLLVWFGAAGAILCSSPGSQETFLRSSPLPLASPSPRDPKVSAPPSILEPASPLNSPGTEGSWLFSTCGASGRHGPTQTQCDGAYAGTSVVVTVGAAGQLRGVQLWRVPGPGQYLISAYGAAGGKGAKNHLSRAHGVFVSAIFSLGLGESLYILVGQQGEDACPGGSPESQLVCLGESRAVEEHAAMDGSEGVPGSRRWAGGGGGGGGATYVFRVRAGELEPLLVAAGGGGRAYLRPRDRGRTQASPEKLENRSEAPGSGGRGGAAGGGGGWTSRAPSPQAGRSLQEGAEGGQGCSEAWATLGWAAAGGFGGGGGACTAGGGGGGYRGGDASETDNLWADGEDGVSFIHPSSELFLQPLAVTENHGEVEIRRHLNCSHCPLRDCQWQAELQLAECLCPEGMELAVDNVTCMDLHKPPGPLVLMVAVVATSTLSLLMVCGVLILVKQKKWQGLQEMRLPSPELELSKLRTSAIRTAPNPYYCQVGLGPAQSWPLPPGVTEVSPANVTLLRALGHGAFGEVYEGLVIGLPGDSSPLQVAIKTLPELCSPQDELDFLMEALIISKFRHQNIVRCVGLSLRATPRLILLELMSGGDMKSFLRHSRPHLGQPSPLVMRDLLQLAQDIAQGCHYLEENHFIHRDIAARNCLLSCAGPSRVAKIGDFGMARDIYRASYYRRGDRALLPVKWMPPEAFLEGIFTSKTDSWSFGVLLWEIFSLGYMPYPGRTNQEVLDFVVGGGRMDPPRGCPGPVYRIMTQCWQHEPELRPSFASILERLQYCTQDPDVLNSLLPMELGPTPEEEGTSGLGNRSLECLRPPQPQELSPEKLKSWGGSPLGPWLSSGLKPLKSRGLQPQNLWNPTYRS
Chain of Serine/threonine-protein kinase PLK1 (P53350 whole entry): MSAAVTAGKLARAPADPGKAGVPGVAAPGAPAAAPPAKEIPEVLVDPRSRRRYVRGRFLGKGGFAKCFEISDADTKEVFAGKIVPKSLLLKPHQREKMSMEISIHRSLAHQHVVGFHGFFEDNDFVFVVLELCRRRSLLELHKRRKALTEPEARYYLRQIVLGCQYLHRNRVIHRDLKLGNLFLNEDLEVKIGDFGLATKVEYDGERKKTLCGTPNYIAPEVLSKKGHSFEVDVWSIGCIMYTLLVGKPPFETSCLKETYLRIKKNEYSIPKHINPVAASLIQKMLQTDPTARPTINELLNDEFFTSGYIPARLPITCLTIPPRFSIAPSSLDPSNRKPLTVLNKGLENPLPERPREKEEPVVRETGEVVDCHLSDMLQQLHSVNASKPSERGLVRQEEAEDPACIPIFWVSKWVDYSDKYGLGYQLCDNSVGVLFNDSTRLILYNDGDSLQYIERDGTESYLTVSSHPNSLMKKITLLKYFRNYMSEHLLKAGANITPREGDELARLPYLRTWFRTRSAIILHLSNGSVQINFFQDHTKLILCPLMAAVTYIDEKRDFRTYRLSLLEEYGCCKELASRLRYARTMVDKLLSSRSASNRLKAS

CCC(=O)N1CCN(c2ccc(-n3c(=O)ccc4cnc5ccc(-c6cnc7ccccc7c6)cc5c43)cc2C(F)(F)F)CC1
% of control [1]: 85%

CN(C(=O)c1cnn2cccnc12)c1cc2c(cc1N1CCOCC1)C(=O)N(C[C@@H](F)C(C)(C)O)C2
dTM [2]: -0.4 K

Nc1cnc(N2CCc3cc(S(=O)(=O)Nc4c(F)cc(Cl)cc4F)cc(N4CCCC4=O)c32)nc1 [TP-020n]
% of control [3]: 100%

CN(C)CCCOc1ccc(-c2cc(NCCCn3cccn3)nc(S(C)(=O)=O)n2)cc1
dTM [4]: < 2 K

O=C(NOC[C@H](O)CO)c1ccc(F)c(F)c1Nc1ccc(I)cc1F
% of control [5]: 45%
% of control [6]: 100%

Cc1cc([C@@H](C)Nc2ccccc2C(=O)O)c2nc(N3CCOCC3)cc(=O)n2c1 [AZD-6482]
% of control [7]: 100%

Cn1cc(-n2cnc3c(NCc4nc5cc(Cl)c(Cl)cc5[nH]4)nc(N4CCOCC4)nc32)cn1
% of control [8]: 3.23%

COc1cc(Nc2nc(C)cc(-c3cnn4nc(OC)ccc34)n2)cc(C(F)(F)F)c1
% of control [9]: 87%

O[C@H]1CC[C@H](Nc2ncc3nc(Nc4c(F)cc(F)cc4F)n([C@H]4CCOC4)c3n2)CC1
% of control [10]: 100%

N#Cc1cccc(-c2c[nH]c3ncnc(N4CCOCC4)c23)c1
% of control [11]: 100%
